In patent publication US20260000351A1, “NON-INVASIVE METHODS OF MEASURING THE DEGREE OF CELLULAR ENERGY METABOLISM” (AMAZON TECHNOLOGIES, INC., priority 2023, published 2026):

Tests used:
Format in all cases: cell-based
Jurkat T cells [1] = experiment: Radio frequency monitoring device measurement at 64 MHz in Jurkat T cell suspensions (Example 5); conditions: for net change in radio frequency magnitude (plain medium subtracted as background): 64 MHz
Experimental: The degree of cellular energy metabolism was monitored by radio frequency in Jurkat T cell suspensions to compare to direct intracellular ATP measurement of Example 4. Jurkat T cell suspensions were maintained as in Example 4. A radio frequency monitoring device was placed in the cell culture and monitored at 64 MHz frequency as a function of time. Cells were stimulated by addition of (a) D-glucose (180 mg/dl final concentration in DMEM), (b) 2-deoxy-D-glucose (2DG, 180 mg/dl final concentration in DMEM), (c) D-glucose (180 mg/dl final concentration) and BAY-876 (a glucose transporter 1 inhibitor, 5 μM final concentration), and (d) DMEM with low D-glucose (5.5 mM, 100 mg/dl, ‘plain medium’). All stimulations were conducted with the same volume of liquid.

Jurkat T cells [2] = experiment: Radio frequency sensor device measurement of cellular energy metabolism in Jurkat T cell suspension (Example 1); conditions: for radio frequency peak in magnitude at 64 MHz: final concentration 200 mg/dl in low D-glucose DMEM, about 8 h
Experimental: Jurkat T cells were obtained from American Type Culture Collection (ATCC) (#TIB-152) and maintained in high D-Glucose Dulbecco's Modified Eagle Medium (DMEM) (THERMO FISHER SCIENTIFIC INC., #10565042, 17.5 mM/315 mg/dl D-glucose) supplemented with 10% fetal bovine serum (FBS, THERMO FISHER SCIENTIFIC INC., #16140071), penicillin/streptomycin (Pen/Strep), beta-Mercaptoethanol (b-ME) in a 37° C. humidified incubator, 5% CO2. At time point 0:00 (hr.: min.), Jurkat T cells (3×10^9) were suspended in three separate solutions of low D-glucose DMEM (THERMO FISHER SCIENTIFIC INC., #10565042, 5.5 mM (100 mg/dl D-glucose) supplemented with fetal bovine serum (10% v/v, THERMO FISHER SCIENTIFIC INC. #16140071), penicillin/streptomycin (Pen/Strep), beta-mercaptoethanol (20 ml of media, 5×10^7 cells per mL each) in tissue culture dishes (10 cm). The cell suspension was placed in an incubator at 37° C. at maximum humidity, carbon dioxide concentration of 5%. Cells were mixed continuously on an orbital shaker (60 rpm). Following 60 minutes of incubation for equilibration, a sensor device of this disclosure was placed in each solution. To the resulting solutions were added 200 μl of media containing 100× D-glucose (e.g., to a final concentration of 200 mg/dl), control media (identical media, but containing low D-glucose (5.5 mM, 100 mg/dl)), and media containing 100× 2-deoxy-D-glucose (identical media, but replacing D-glucose with 2-deoxy-D-glucose at a final concentration of e.g., 200 mg/dl). The radio frequency was detected at 64MHz with the sensor device over the course of approximately 8 h.

Jurkat T cells [3] = experiment: Luciferase-based assay of intracellular ATP concentration (CELLTITER-GLO 2.0); conditions: D-glucose 15.5 mM (280 mg/dl final) versus low D-glucose 5.5 mM
Experimental: Intracellular ATP concentrations were assessed using a luciferase-based assay to determine the rate of ATP production following addition of glucose. Jurkat T cells (1×10^7 cells per well in low D-glucose DMEM (100 μl, 5.5 mM, 100 mg/dl D-glucose)) were aliquoted into flat-bottom 96-well plates. Cells were stimulated with DMEM either containing D-glucose (15.5 mM, 280 mg/dl final solution) or low D-glucose (5.5 mM, 100 mg/dl), an effective difference of 10 mM (180 mg/dl) glucose, at time point 0 min. Cells were quantitatively removed from the incubation plate. An aliquot of cell suspension (50 μl) was transferred onto frozen CELLTITER-GLO® 2.0 (PROMEGA CO.) assay reagent on dry ice. The resulting mixture was thawed, and the ATP concentration measured via light emission in a 96-well plate-compatible luminometer. The resulting curve of luciferase activity in relative luminescence units (RLUs) over time (min. following stimulation) is shown in FIG. 7. […] Glucose transport is rapid as indicated by the rapid increase of ATP concentration following addition of D-glucose.

[4] = 180 mg/dl final concentration in DMEM

| SMILES | magnitude at 64 MHz over time (curve shape) (Jurkat T cells [1]; [4]) | net change in radio frequency magnitude (plain medium subtracted as background) (Jurkat T cells [1]; [4]) | radio frequency peak in magnitude at 64 MHz (Jurkat T cells [2]) | magnitude at 64 MHz over time (curve shape) (Jurkat T cells [1]; BAY-876 5 μM final with D-glucose 180 mg/dl final) | time of apex of radio frequency peak (Jurkat T cells [2]; D-glucose 200 mg/dl final) | difference in luminescence (net ATP concentration) over time (Jurkat T cells [3]) |
| --- | --- | --- | --- | --- | --- | --- |
| O=CC[C@@H](O)[C@H](O)[C@H](O)CO [2-deoxy-D-glucose] | an initial peak, similar to D-glucose, the magnitude at 64 MHz quickly adopts a similar linear decline | only an initial net increase | no detectable peak | – | – | – |
| Cc1c(NC(=O)c2cc(C(N)=O)nc3cc(F)ccc23)c(C(F)(F)F)nn1Cc1ccc(C#N)cc1 [BAY-876] | – | – | – | a smooth decline becoming linear over time | – | – |
| O=C[C@H](O)[C@@H](O)[C@H](O)[C@H](O)CO [D-glucose] | both a peak shortly after addition of stimulus, and a more gradual decline | an initial net increase in magnitude followed by a slow net decrease | a broad peak was observed | – | approximately 4 h | an increase in net ATP concentration followed by a slower decrease in net ATP concentration |
